How the values were obtained:
Type in all cases: in vivo
Conditions in all cases: treatment dosage 320 g/ha
[1] = tested on: rapeseed; test: Test Example 4: foliar treatment, effect on crop; g: rapeseed
Summary of the method: (§1)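 Seeds are spot-sown into sterilized diluvial soil and covered with about 1.5 cm of soil. After 14 days' greenhouse growth at 25 to 30° C, plants are sprayed on stems and leaves with diluted emulsion at the stated g/ha rate, then scored at 3 weeks.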

[2] = tested on: fig-leafed goosefoot; test: Test Example 4: weedkilling efficacy by foliar treatment; M: fig-leafed goosefoot
Summary of the method: as §1

[3] = tested on: soybean; test: Test Example 4: foliar treatment, effect on crop; d: soybean
Summary of the method: as §1

[4] = tested on: directly sown rice; test: Test Example 4: foliar treatment, effect on crop; b: directly sown rice
Summary of the method: as §1

[5] = tested on: redroot pigweed; test: Test Example 3: weedkilling efficacy through soil treatment; L: redroot pigweed
Summary of the method: (§2)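 Crop and weed responses were judged three weeks after a uniform surface spray of the water-diluted emulsion at the given g/ha rate. Seeds sat beneath about 1.5 cm of sterilized diluvial soil, and boxes stood in a greenhouse at 25 to 30° C.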

[6] = tested on: wild oat; test: Test Example 3: weedkilling efficacy through soil treatment; G: wild oat
Summary of the method: as §2

[7] = tested on: barnyard grass; test: Test Example 4: weedkilling efficacy by foliar treatment; F: barnyard grass
Summary of the method: as §1

[8] = tested on: oval-leafed pondweed; test: Test Example 1: weedkilling efficacy, preemergent weed treatment in the submerged state; C: oval-leafed pondweed
Summary of the method: (§3)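 Pots of alluvial soil flooded 4 cm deep, sown with barnyard grass, bulrush and oval-leafed pondweed and transplanted with 2.5-leaf rice. Emulsified compound applied to the water surface on sowing day at stated g/ha; greenhouse 25–30 °C, effects assessed 3 weeks after treatment.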

[9] = tested on: black-grass; test: Test Example 4: weedkilling efficacy by foliar treatment; H: black-grass
Summary of the method: as §1

[10] = tested on: Italian ryegrass; test: Test Example 3: weedkilling efficacy through soil treatment; I: Italian ryegrass
Summary of the method: as §2

[11] = tested on: chickweed; test: Test Example 4: weedkilling efficacy by foliar treatment; N: chickweed
Summary of the method: as §1

[12] = tested on: beet; test: Test Example 4: foliar treatment, effect on crop; f: beet
Summary of the method: as §1

[13] = tested on: black-grass; test: Test Example 3: weedkilling efficacy through soil treatment; H: black-grass
Summary of the method: as §2

[14] = tested on: green foxtail; test: Test Example 3: weedkilling efficacy through soil treatment; E: green foxtail
Summary of the method: as §2

[15] = tested on: wheat; test: Test Example 4: foliar treatment, effect on crop; e: wheat
Summary of the method: as §1

[16] = tested on: bulrush; test: Test Example 2: weedkilling efficacy, growth period weed treatment in the submerged state; B: bulrush
Summary of the method: (§4)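 Barnyard grass, bulrush and oval-leafed pondweed sown in alluvial soil under 4 cm flooding, greenhouse 25 to 30° C. At 1-2 leaf stage, water-diluted emulsion applied to the water surface at stated g/ha dosages; effects scored 3 weeks later.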

[17] = tested on: soybean; test: Test Example 3: soil treatment, effect on crop; d: soybean
Summary of the method: as §2

[18] = tested on: directly sown rice; test: Test Example 3: soil treatment, effect on crop; b: directly sown rice
Summary of the method: as §2

[19] = tested on: chickweed; test: Test Example 3: weedkilling efficacy through soil treatment; N: chickweed
Summary of the method: as §2

[20] = tested on: bulrush; test: Test Example 1: weedkilling efficacy, preemergent weed treatment in the submerged state; B: bulrush
Summary of the method: as §3

[21] = tested on: oval-leafed pondweed; test: Test Example 2: weedkilling efficacy, growth period weed treatment in the submerged state; C: oval-leafed pondweed
Summary of the method: as §4

[22] = tested on: beet; test: Test Example 3: soil treatment, effect on crop; f: beet
Summary of the method: as §2

[23] = tested on: catchweed; test: Test Example 4: weedkilling efficacy by foliar treatment; O: catchweed
Summary of the method: as §1

[24] = tested on: Indian mallow; test: Test Example 4: weedkilling efficacy by foliar treatment; K: Indian mallow
Summary of the method: as §1

[25] = tested on: rapeseed; test: Test Example 3: soil treatment, effect on crop; g: rapeseed
Summary of the method: as §2

[26] = tested on: Italian ryegrass; test: Test Example 4: weedkilling efficacy by foliar treatment; I: Italian ryegrass
Summary of the method: as §1

[27] = tested on: Indian mallow; test: Test Example 3: weedkilling efficacy through soil treatment; K: Indian mallow
Summary of the method: as §2

[28] = tested on: barnyard grass; test: Test Example 3: weedkilling efficacy through soil treatment; F: barnyard grass
Summary of the method: as §2

[29] = tested on: corn; test: Test Example 3: soil treatment, effect on crop; c: corn
Summary of the method: as §2

[30] = tested on: common wind-grass; test: Test Example 4: weedkilling efficacy by foliar treatment; J: common wind-grass
Summary of the method: as §1

[31] = tested on: corn; test: Test Example 4: foliar treatment, effect on crop; c: corn
Summary of the method: as §1

[32] = tested on: redroot pigweed; test: Test Example 4: weedkilling efficacy by foliar treatment; L: redroot pigweed
Summary of the method: as §1

[33] = tested on: barnyard grass; test: Test Example 1: weedkilling efficacy, preemergent weed treatment in the submerged state; A: barnyard grass
Summary of the method: as §3

[34] = tested on: wild oat; test: Test Example 4: weedkilling efficacy by foliar treatment; G: wild oat
Summary of the method: as §1

[35] = tested on: birds-eye speedwell; test: Test Example 4: weedkilling efficacy by foliar treatment; p: birds-eye speedwell
Summary of the method: as §1

[36] = tested on: transplanted rice; test: Test Example 1: preemergent weed treatment in the submerged state, effect on crop; a: transplanted rice
Summary of the method: as §3

[37] = tested on: barnyard grass; test: Test Example 2: weedkilling efficacy, growth period weed treatment in the submerged state; A: barnyard grass
Summary of the method: as §4

[38] = tested on: crabgrass; test: Test Example 4: weedkilling efficacy by foliar treatment; D: crabgrass
Summary of the method: as §1

[39] = tested on: common wind-grass; test: Test Example 3: weedkilling efficacy through soil treatment; J: common wind-grass
Summary of the method: as §2

[40] = tested on: green foxtail; test: Test Example 4: weedkilling efficacy by foliar treatment; E: green foxtail
Summary of the method: as §1

[41] = tested on: wheat; test: Test Example 3: soil treatment, effect on crop; e: wheat
Summary of the method: as §2

[42] = tested on: crabgrass; test: Test Example 3: weedkilling efficacy through soil treatment; D: crabgrass
Summary of the method: as §2

[43] = tested on: fig-leafed goosefoot; test: Test Example 3: weedkilling efficacy through soil treatment; M: fig-leafed goosefoot
Summary of the method: as §2

SMILES: CC1=C(c2ccccc2)C(=O)N(C(C)(C)C(=O)Nc2cc(F)nc(F)c2)CO1 [B-4-04]
- g (rapeseed) effect on crop grade [1]: 3 (weed kill ratio 40% or more, less than 70%)
- M (fig-leafed goosefoot) weedkilling efficacy grade [2]: 4 (weed kill ratio 70% or more, less than 90%)
- d (soybean) effect on crop grade [3]: 1 (weed kill ratio 5% or more, less than 20%)
- b (directly sown rice) effect on crop grade [4]: 4 (weed kill ratio 70% or more, less than 90%)
- L (redroot pigweed) weedkilling efficacy grade [5]: 3 (weed kill ratio 40% or more, less than 70%)
- G (wild oat) weedkilling efficacy grade [6]: 0 (weed kill ratio 5% or less (practically no effect))
- F (barnyard grass) weedkilling efficacy grade [7]: 4 (weed kill ratio 70% or more, less than 90%)
- C (oval-leafed pondweed) weedkilling efficacy grade [8]: 5 (weed kill ratio 90% or more, (practically complete withering))
- H (black-grass) weedkilling efficacy grade [9]: 4 (weed kill ratio 70% or more, less than 90%)
- I (Italian ryegrass) weedkilling efficacy grade [10]: 5 (weed kill ratio 90% or more, (practically complete withering))
- N (chickweed) weedkilling efficacy grade [11]: 3 (weed kill ratio 40% or more, less than 70%)
- f (beet) effect on crop grade [12]: 4 (weed kill ratio 70% or more, less than 90%)
- H (black-grass) weedkilling efficacy grade [13]: 5 (weed kill ratio 90% or more, (practically complete withering))
- E (green foxtail) weedkilling efficacy grade [14]: 5 (weed kill ratio 90% or more, (practically complete withering))
- e (wheat) effect on crop grade [15]: 4 (weed kill ratio 70% or more, less than 90%)
- B (bulrush) weedkilling efficacy grade [16]: 5 (weed kill ratio 90% or more, (practically complete withering))
- d (soybean) effect on crop grade [17]: 0 (weed kill ratio 5% or less (practically no effect))
- b (directly sown rice) effect on crop grade [18]: 3 (weed kill ratio 40% or more, less than 70%)
- N (chickweed) weedkilling efficacy grade [19]: 4 (weed kill ratio 70% or more, less than 90%)
- B (bulrush) weedkilling efficacy grade [20]: 5 (weed kill ratio 90% or more, (practically complete withering))
- C (oval-leafed pondweed) weedkilling efficacy grade [21]: 5 (weed kill ratio 90% or more, (practically complete withering))
- f (beet) effect on crop grade [22]: 2 (weed kill ratio 20% or more, less than 40%)
- O (catchweed) weedkilling efficacy grade [23]: 4 (weed kill ratio 70% or more, less than 90%)
- K (Indian mallow) weedkilling efficacy grade [24]: 5 (weed kill ratio 90% or more, (practically complete withering))
- g (rapeseed) effect on crop grade [25]: 4 (weed kill ratio 70% or more, less than 90%)
- I (Italian ryegrass) weedkilling efficacy grade [26]: 4 (weed kill ratio 70% or more, less than 90%)
- K (Indian mallow) weedkilling efficacy grade [27]: 0 (weed kill ratio 5% or less (practically no effect))
- F (barnyard grass) weedkilling efficacy grade [28]: 5 (weed kill ratio 90% or more, (practically complete withering))
- c (corn) effect on crop grade [29]: 0 (weed kill ratio 5% or less (practically no effect))
- J (common wind-grass) weedkilling efficacy grade [30]: 4 (weed kill ratio 70% or more, less than 90%)
- c (corn) effect on crop grade [31]: 1 (weed kill ratio 5% or more, less than 20%)
- L (redroot pigweed) weedkilling efficacy grade [32]: 3 (weed kill ratio 40% or more, less than 70%)
- A (barnyard grass) weedkilling efficacy grade [33]: 5 (weed kill ratio 90% or more, (practically complete withering))
- G (wild oat) weedkilling efficacy grade [34]: 2 (weed kill ratio 20% or more, less than 40%)
- P (birds-eye speedwell) weedkilling efficacy grade [35]: 4 (weed kill ratio 70% or more, less than 90%)
- a (transplanted rice) effect on crop grade [36]: 0 (weed kill ratio 5% or less (practically no effect))
- A (barnyard grass) weedkilling efficacy grade [37]: 5 (weed kill ratio 90% or more, (practically complete withering))
- D (crabgrass) weedkilling efficacy grade [38]: 4 (weed kill ratio 70% or more, less than 90%)
- J (common wind-grass) weedkilling efficacy grade [39]: 5 (weed kill ratio 90% or more, (practically complete withering))
- E (green foxtail) weedkilling efficacy grade [40]: 4 (weed kill ratio 70% or more, less than 90%)
- e (wheat) effect on crop grade [41]: 0 (weed kill ratio 5% or less (practically no effect))
- D (crabgrass) weedkilling efficacy grade [42]: 5 (weed kill ratio 90% or more, (practically complete withering))
- M (fig-leafed goosefoot) weedkilling efficacy grade [43]: 3 (weed kill ratio 40% or more, less than 70%)

Source: US9738634B2, “Heterocyclic amide compound and herbicide” (SYNGENTA PARTICIPATIONS AG, priority 2013, dated 2017)
